Measured values reported in PubChem BioAssay (NCI).
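The compound was tested at five concentrations on cells cultured in 96-well plates, with a 48-hour exposure period. GI50 marks 50% less growth. TGI is the concentration that stops growth completely.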

Legend:
Assay in all cases: inhibition of tumour cell growth, NCI panel, 48 h
A549 NSCLC = test system: A549 NSCLC
EKVX NSCLC = test system: EKVX NSCLC
HS 578T breast = test system: HS 578T breast
MDA-MB-435 = test system: MDA-MB-435
SF-268 CNS = test system: SF-268 CNS
UACC-62 melanoma = test system: UACC-62 melanoma
IGROV1 ovarian = test system: IGROV1 ovarian
RXF 393 renal = test system: RXF 393 renal

Row | SMILES | GI50 (A549 NSCLC) [µM] | TGI (A549 NSCLC) [µM] | GI50 (EKVX NSCLC) [µM] | TGI (EKVX NSCLC) [µM] | GI50 (HS 578T breast) [µM] | TGI (HS 578T breast) [µM] | GI50 (MDA-MB-435) [µM] | TGI (MDA-MB-435) [µM] | GI50 (SF-268 CNS) [µM] | TGI (SF-268 CNS) [µM] | GI50 (UACC-62 melanoma) [µM] | TGI (UACC-62 melanoma) [µM] | TGI (IGROV1 ovarian) [µM] | TGI (RXF 393 renal) [µM] | GI50 (IGROV1 ovarian) [µM] | GI50 (RXF 393 renal) [µM]
1 | CCOP(=O)(OCC)C(NC(c1ccccc1)c1ccccc1)c1ccccc1 (stereo not given) | 15 | 30 | 13.4 | 28.5 | 1.89 | 13.5 | 1.36 | 8.89 | 15.6 | 35.4 | 12.1 | 25.9 |  |  |  | 
2 | CC(=O)O[C@H]1C(=O)[C@@]2(C)C(C(OC(=O)c3ccccc3)[C@]3(O)CC(OC(=O)[C@H](OC(=O)CCC(=O)O)C(NC(=O)c4ccccc4)c4ccccc4)C(C)=C1C3(C)C)C1(OC(C)=O)COC1C[C@@H]2OC(=O)CCC(=O)O (stereo not given in full) |  | > 100 |  | > 100 |  |  | 0.189 | 0.495 |  | > 100 | 2.05 | 29.3 | > 100 | > 26 |  | 
3 | N#CC(=S)Nc1cccc(Cl)c1 |  | > 100 |  | > 100 |  |  |  | > 100 |  | > 100 |  | > 100 | 29.4 | > 100 |  | 
4 | OCCCCC#Cc1ccccc1C#Cc1ccccc1 | 21.3 | 70.4 | 6.59 | 22.4 | 15.6 | 39.6 | 13.7 | 27.2 | 16.8 | 37.6 | 11.1 | 23.5 | > 100 |  | 30.9 | 
5 | O=C(O)c1ccc2c(c1)Cc1cc([N+](=O)[O-])ccc1-2 |  | > 100 |  | > 100 |  | > 100 |  | > 100 |  | > 100 |  | > 100 | > 100 |  |  | 
6 | Nc1ccc2c(SCCSc3c4ccccc4nc4cc(N)ccc34)c3ccccc3nc2c1 |  | > 100 |  | > 100 |  | > 100 |  | > 100 |  | > 100 |  | > 100 | > 100 |  |  | 
7 | CC(=O)OC1C(=O)C(O)C(C)OC1O[C@@H]1C[C@@]2(C)[C@@H]3CC=C4[C@@H](C[C@H](O)C(=O)C4(C)C)[C@]3(C)C(=O)C[C@]2(C)[C@H]1[C@@](C)(O)C(=O)/C=C/C(C)(C)O (stereo not given in full) |  | > 10 |  | > 7.55 |  |  |  |  |  | 4.01 |  | > 7.98 | 4.62 | 1.43 |  | 
8 | N#Cc1c(C(=O)c2ccccc2)cnn1-c1ccccc1 | > 25 | > 25 |  |  | > 25 | > 25 | > 25 | > 25 | > 25 | > 25 | > 25 | > 25 | > 25 | > 25 | > 25 | > 25
9 | C1CC[N-]CC1.C1CC[N-]CC1.C1CC[N-]CC1.C1CC[N-]CC1.[Cl][Rh][Cl] | 3.12 | > 100 |  |  | 3.95 | 54.8 | 4.09 | 32.4 | 5.21 | 27.9 |  |  | 76.8 | 81.1 | 7.85 | 13.8
10 | CC(CN(CP(=O)([O-])[O-])CP(=O)([O-])[O-])N(CP(=O)([O-])[O-])CP(=O)([O-])[O-].N.N.[Pt+2] (stereo not given) | > 100 | > 100 | > 100 | > 100 |  |  |  |  | > 100 | > 100 | > 100 | > 100 | > 100 | > 100 | > 100 | > 100
11 | COc1ccc(-n2c(SCc3cc(OC)c(OC)c(OC)c3)nc3ccc(C)cc3c2=O)c(OC)c1 | 4.18 | > 100 |  |  | 3.31 | > 100 | 1.05 | 3.07 | 7.88 | > 100 | 5.19 | > 100 | > 100 | > 100 | 7.2 | 4
12 | CCCCCCCCCC(=O)CC(=O)c1ccc(O)cc1O |  | > 100 |  | 73 |  |  |  |  |  | > 100 |  | 43 | > 100 | 72.1 |  | 
13 | N[C@@H](Cc1c[nH]c2ccccc12)C(=O)NC1CCN(C(=O)c2c[nH]c3ccccc23)CC1 | > 100 | > 100 | > 100 | > 100 | 71.3 | > 100 | > 100 | > 100 | > 100 | > 100 | > 100 | > 100 | > 100 |  | 64.2 | 
14 | COc1ccc(/C=C/C(=O)c2cc3c(N)c(C(=O)Nc4ccccc4Cl)sc3nc2C)cc1 | 2.14 | > 50 | 2.25 | > 50 | 0.937 | 4.56 |  |  | 3.39 | 27.9 | 0.391 | 8.93 | > 50 | 3.6 | 2.72 | 0.846
15 | O=C(O)C(=Cc1ccnc2ccccc12)C(=O)O |  | > 100 |  | > 100 |  | > 100 |  |  |  | > 100 |  | > 100 | > 100 | > 100 |  | 
